{
  "source": "patent US8293231B2",
  "about": "“Methods and compositions for treating ischemia” (Blue Blood Biotech Corp., priority 2005, dated 2012)",
  "key": {"[1]": {"test_system": "ERK1/2, p38 MAPK, Akt, and eNOS phosphorylation in HUVECs", "test": "Assay of ERK1/2, p38 MAPK, Akt and eNOS phosphorylation (Western blotting)", "assay_type": "cell-based, human", "protocol": "HUVECs were cultured to confluence in a 6-cm-diameter dish and incubated in M199 containing 1% FBS for 18 h. Cells were washed and incubated with serum-free M199 for 6 h, and treated with the indicated concentration of TMD23. Cell lysates were separated by SDS-PAGE, and the levels of phospho-ERK1/2 (Tyr 204) and total ERK1/2, phospho-p38 (Thr-180/Tyr-182) and p38, phosphor-Akt (Ser-473) and Akt, and phospho-eNOS (Ser-1173) and eNOS were detected by Western blotting with specific antibodies (Cell Signaling Technology)."}, "[2]": {"test_system": "PAI activity in conditioned media of HUVECs", "test": "Plasminogen activator inhibitor (PAI) activity assay", "assay_type": "cell-based, human", "conditions": "12 h; 100 or 1000 ng/mL TMD23, 70 ng/mL PMA, 10 ng/mL VEGF", "protocol": "(§1) HUVECs were seeded at 80% confluence on 100-mm dishes in M199 medium. After 24 h, cells were rinsed with serum-free M199 twice and incubated in serum-free M199 with various concentrations of TMD23, VEGF (10 ng/mL), or PMA (70 ng/mL) for 12 h. The conditioned medium containing […] secreted proteins was analyzed by gelatin- and casein-based zymographies. The digested area appeared clear on a blue background, indicating the location of matrix metalloproteinase (MMP) activity. To further verify MMP caseinolytic activity, the casein-containing gel was incubated with incubation buffer containing 10 mM EDTA, an inhibitor of MMPs, to observe disappearance of the clear band. Plasminogen activator inhibitor (PAI) activity was measured by titrating samples with increasing amounts of tissue-type plasminogen activator (t-PA) (Boehringer Ingelheim) into a fixed volume of endothelial-cell-conditioned media.\nas §1, with “zymographies. Lee O H, et al., Identification of angiogenic properties of insulin-like growth factor II in in vitro angiogenesis models. Brit J. Cancer. 2000; 82:385-391.” for “zymographies.”, “media. Shi G Y., et al., Plasmin and the regulation of tissue-type plasminogen activator biosynthesis in human endothelial cells. […]” for “media.”"}, "rat cornea": {"test_system": "rat cornea", "test": "Rat corneal angiogenesis assay", "assay_type": "in vivo, Sprague Dawley rats", "protocol": "(§2) The rat corneal assay was performed as described elsewhere. See eg., Kenyon B M., et al A model of angiogenesis in the mouse cornea. Invest Opthalmol Vis Sci. 1996; 37:1625-1632. Uniformly sized pellets of Hydron (polyhydroxyethylmethacrylate [poly HEMA]) (Sigma-Aldrich) containing either TMD23 or basic fibroblast growth factor (bFGF) and sucralfate (Sigma-Aldrich) were implanted into the rat corneal stroma adjacent to the temporal limbus. Briefly, sterile-saline suspensions containing 5-40 μg TMD23 or bFGF plus 10 mg sucralfate were made and speed vacuumed for 5 min; 12% Hydron in ethanol was added as described. The suspension was deposited onto an autoclaved, sterilized, 15-mm×15-mm nylon mesh. […] The eyes of Sprague Dawley rats (250-300 g) were topically anesthetized and a single pellet was inserted into a surgically created pocket in the corneal stroma. Corneas were examined daily with a dissecting microscope for up to 24 days for capillary growth. Maximal vessel length, clock h, and vascular areas of corneas of all rats were measured with a slit-lamp stereomicroscope.\nas §2, with “elsewhere.” for “elsewhere. See eg., Kenyon B M., et al A model of angiogenesis in the mouse cornea. Invest Opthalmol Vis Sci. 1996; 37:1625-1632.”, “clock hour,” for “clock h,”"}, "[3]": {"test_system": "Matrigel plugs in FVB mice", "test": "Murine angiogenesis assay (Matrigel plug)", "assay_type": "in vivo", "protocol": "To assess angiogenic effects in vivo, growth-factor-reduced liquid Matrigel (0.5 mL) containing heparin (60 U/mL) and various concentrations of TMD23, bFGF or VEGF was subcutaneously injected into FVB mice near the abdominal midline. Matrigel with PBS plus heparin served as the negative control, with bFGF and VEGF plus heparin as the positive control. Four days after injection, mice were sacrificed and Matrigel plugs were surgically removed. For macroscopic analysis of angiogenesis, hemoglobin content in Matrigel was measured using Drabkin reagent 525 (Sigma-Aldrich). For histological analysis, rat anti-mouse CD31 (PECAM-1, platelet endothelial cell adhesion molecule-1) antibody (Pharmingen) was used. The same specimens were used for hematoxylin and eosin (H&E) staining."}, "[4]": {"test_system": "human melanoma A2058 cells in Matrigel", "test": "Effect of TMD23 on tumor neoangiogenesis", "assay_type": "in vivo, athymic nude mice", "protocol": "To assess TMD23 effects on tumor neoangiogenesis, 1×10^6 human melanoma A2058 cells (ATCC® CRL-11147) were mixed with Matrigel (0.5 mL) containing heparin (60 U/mL) and various concentrations of TMD23 and subcutaneously injected into athymic nude mice. Matrigel plugs were harvested after 18 days and frozen in liquid nitrogen. Blood vessels were detected by immunohistochemistry using anti-CD31 antibody as described above. Microvessel density (MVD) was calculated by counting six highly vascularized fields in each section (200× magnification; MetaMorph software)."}},
  "data": [
    {"substance": "TMD23: Recombinant human thrombomodulin fragment, amino acids Ala242-Ser515 of SEQ ID NO: 2: six EGF-like structures (D2) plus Ser/Thr-rich domain D3", "values": [
      {"measurement": "Time of maximal phosphorylation (ERK, p38, and Akt)", "setting": "[1]; FIG. 3B", "result": "about 30 min"},
      {"measurement": "Time of maximal phosphorylation (eNOS)", "setting": "[1]; FIG. 3B", "result": "~120", "unit": "min"},
      {"measurement": "ERK1/2, p38, Akt, and eNOS phosphorylation in HUVECs", "setting": "[1]; total proteins remained constant, FIG. 3A", "result": "dose-dependently induced"},
      {"measurement": "PAI activity in conditioned media of HUVECs", "setting": "[2]", "result": "decreased significantly"},
      {"measurement": "Day of maximal response", "setting": "rat cornea; 90-ng dose", "result": 10, "unit": "days"},
      {"measurement": "Maximal response compared with bFGF", "setting": "rat cornea; 90-ng dose, day 10", "result": "slightly greater than the response to 90 ng bFGF"},
      {"measurement": "Corneal neovascularization", "setting": "rat cornea; implants in rat cornea", "result": "induced dose-dependent and time-dependent corneal neovascularization"},
      {"measurement": "Day of complete abrogation of angiogenic response", "setting": "rat cornea; response regressed gradually after day 10", "result": "≤ 24", "unit": "days"},
      {"measurement": "Induction of in vivo angiogenesis compared with TMD2", "setting": "[3]; Matrigel plug assay", "result": "more effective than TMD2"},
      {"measurement": "Histology of Matrigel plugs (H&E, anti-mouse CD31)", "setting": "[3]; TMD23 and heparin", "result": "Capillary-like structures were found"},
      {"measurement": "Vascularization of Matrigel plugs", "setting": "[3]; all TMD23 concentrations, plus heparin", "result": "Intense vascularization"},
      {"measurement": "Appearance of Matrigel plugs, with heparin", "setting": "[3]; day 4, plus heparin (30 U), TMD23 10, 100, or 1,000 ng, bFGF 250 ng, VEGF 50 ng", "result": "bright red"},
      {"measurement": "Magnitude of angiogenic reaction with heparin versus without", "setting": "[3]; gels supplemented with both angiogenic factor and heparin", "result": "considerably greater"},
      {"measurement": "Hemoglobin content of recovered Matrigel plugs", "setting": "[3]; plus heparin, compared with controls", "result": "significantly increased"},
      {"measurement": "Blood vessels in Matrigel plugs (CD31 staining)", "setting": "[4]; 18 days", "result": "significantly more blood vessels"},
      {"measurement": "Weight of tumor contained in a Matrigel plug", "setting": "[4]; FIG. 8A", "result": "increased the weight of tumor"},
      {"measurement": "Microvessel density (MVD)", "setting": "[4]; FIG. 8C", "result": "increased microvessel density"},
      {"measurement": "Tumor size developed by Matrigel plugs containing A2058 cells", "setting": "[4]; compared with A2058 cells alone, 18 days", "result": "bigger"}
    ]}
  ]
}
